Measurements from patent US12275731B2, “Azaindole inhibitors of wild-type and mutant forms of LRRK2” (DANA-FARBER CANCER INSTITUTE, INC., priority 2018, dated 2025).

Assays:
LRRK2 WT enzyme = target: T1, LRRK2 WT enzyme (Homo sapiens, UniProt Q5S007); assay: LRRK2 wild type kinase inhibition assay (ADP-Glo); assay type: biochemical; details: Table 2, class symbols; read-out: Enzyme activity against LRRK2 WT (IC50)
T1 construct: purchased Thermo Fisher Scientific PR8604B
Experimental: (§1) IC50 experiments were performed for inventive compounds. An exemplary kit to perform this assay includes the Adapta™ Screening Protocol and Assay Conditions by Invitrogen™ (Fisher Scientific™, Catalog No. PV5099).
(§2) All LRRK2 kinase inhibition assays were conducted by using Promega ADP-Glo™ Kinase assay systems (Catalog number; V4475). Inhibitors were tested with 12 concentrations over a 5-fold serial dilution series (50 μM, 10 μM, 2 μM, 400 nM, 80 nM, 16 nM, 3.2 nM, […]) and PF06447475 as positive control. For the LRRK2 wild type (WT) enzyme assay, each inhibitor was mixed with 0.2 μg/μL of substrate (LRRKtide, SignalChem, Richmond, BC, Canada), […] (Invitrogen™, Carlsbad, CA), 24 ng of LRRK2 WT enzyme (Thermo Fisher Scientific, PR8604B) in 384-well plate. For LRRK G2019S, each compound was mixed with 0.2 μg/μL of substrate, […], 16 ng of LRRK2 G2019S enzyme (SignalChem, L10-12GG). All samples were diluted with kinase reaction buffer (40 mmol/L TrisHCl, 10 mmol/L MgCl2, and 0.1 μg/μL BSA (bovine serum albumin)). After 2 hours at 25° C., ADP-Glo™ (Promega, Madison, WI) reagent was added and the samples were incubated at rt for 40 min. Finally, Kinase Detection Reagent was added and the resulting mixtures were allowed to react at rt for 10 min. Luminescence signals were detected using Synergy™ Neo2 microplate reader (Bio-Tek). Compound inhibition curve was fitted using Graphpad Prism 8.0 software.

LRRK2(G2019S) = LRRK2(G2019S) (Homo sapiens, UniProt Q5S007, G2019S); assay: LRRK2 G2019S kinase inhibition assay (ADP-Glo); assay type: biochemical; set-up: purchased SignalChem L10-12GG; details: Table 2, class symbols; read-out: Enzyme activity against LRRK2 G2019S (IC50)
Experimental: as §1, §2

ALK(C1156Y) = target: T2, ALK(C1156Y) (Homo sapiens, UniProt Q9UM73, C1156Y); assay: KinomeScan profiling; assay type: binding; details: read-out: % control
T2 construct: purchased KinomeScan®
In short: (§3)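 First, compounds in DMSO are added at 1 μM to each of 468 kinase assays. Next, RLU signals are normalised between positive control (0%) and DMSO (100%). Finally, kinases under 35% are flagged active.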

STK39 = target: T3, STK39 (Homo sapiens, UniProt Q9UEW8); assay: KinomeScan profiling; assay type: binding; details: STK39, 1 μM; read-out: % control
T3 construct: purchased KinomeScan® (panel service)
In short: as §3

TSSK1B = target: T4, TSSK1B (Homo sapiens, UniProt Q9BXA7); assay: KinomeScan profiling; assay type: binding; details: read-out: % control
T4 sequence (Q9BXA7 1-367): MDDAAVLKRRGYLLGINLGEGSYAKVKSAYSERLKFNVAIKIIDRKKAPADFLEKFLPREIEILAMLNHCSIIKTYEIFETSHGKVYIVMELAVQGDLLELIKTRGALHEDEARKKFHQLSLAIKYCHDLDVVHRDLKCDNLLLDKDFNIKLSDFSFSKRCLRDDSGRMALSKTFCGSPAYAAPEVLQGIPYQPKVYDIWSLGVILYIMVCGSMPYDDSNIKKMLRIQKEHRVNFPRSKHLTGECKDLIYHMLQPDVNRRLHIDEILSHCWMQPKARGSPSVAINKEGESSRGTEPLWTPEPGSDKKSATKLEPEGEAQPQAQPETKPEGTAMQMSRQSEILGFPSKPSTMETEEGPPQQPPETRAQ
In short: as §3

CDKL2 = target: T5, CDKL2 (Homo sapiens, UniProt Q92772); assay: KinomeScan profiling; assay type: binding; details: CDKL2, 1 μM; read-out: % control
T5 sequence (Q92772 1-493): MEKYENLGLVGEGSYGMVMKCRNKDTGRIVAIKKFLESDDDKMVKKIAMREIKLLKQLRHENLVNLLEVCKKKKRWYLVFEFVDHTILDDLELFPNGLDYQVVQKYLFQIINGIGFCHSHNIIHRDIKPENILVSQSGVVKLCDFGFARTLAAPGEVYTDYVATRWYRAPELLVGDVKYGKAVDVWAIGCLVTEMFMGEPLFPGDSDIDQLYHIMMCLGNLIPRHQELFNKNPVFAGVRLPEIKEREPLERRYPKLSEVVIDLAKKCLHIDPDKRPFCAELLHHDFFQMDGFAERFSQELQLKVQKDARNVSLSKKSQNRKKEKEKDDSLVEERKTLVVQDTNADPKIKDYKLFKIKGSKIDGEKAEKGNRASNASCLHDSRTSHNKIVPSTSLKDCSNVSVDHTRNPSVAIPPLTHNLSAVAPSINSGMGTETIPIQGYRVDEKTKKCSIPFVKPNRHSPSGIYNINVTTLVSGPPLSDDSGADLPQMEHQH
In short: as §3

MAP4K4 = MAP4K4 (Homo sapiens, UniProt O95819); assay: KinomeScan profiling; assay type: binding; details: MAP4K4, 1 μM; read-out: % control
In short: as §3

ALK(L1196M) = target: T6, ALK(L1196M) (Homo sapiens, UniProt Q9UM73, L1196M); assay: KinomeScan profiling; assay type: binding; details: read-out: % control
T6 construct: purchased KinomeScan®
In short: as §3

SRPK1 = target: T7, SRPK1 (Homo sapiens, UniProt Q96SB4); assay: KinomeScan profiling; assay type: binding; details: SRPK1, 1 μM; read-out: % control
T7 construct: purchased KinomeScan® (panel service)
In short: as §3

WNK2 = WNK2 (Homo sapiens, UniProt Q9Y3S1); assay: KinomeScan profiling; assay type: binding; details: WNK2, 1 μM; read-out: % control
In short: as §3

[1] = target: T8, TYK2(JH1domain-catalytic) (Homo sapiens, UniProt P29597); assay: KinomeScan profiling; assay type: binding; details: read-out: % control
T8 construct: tyrosine kinase 2 (TYK2)(JH1domain-catalytic)
T8 sequence (P29597 897-1176 limits assumed): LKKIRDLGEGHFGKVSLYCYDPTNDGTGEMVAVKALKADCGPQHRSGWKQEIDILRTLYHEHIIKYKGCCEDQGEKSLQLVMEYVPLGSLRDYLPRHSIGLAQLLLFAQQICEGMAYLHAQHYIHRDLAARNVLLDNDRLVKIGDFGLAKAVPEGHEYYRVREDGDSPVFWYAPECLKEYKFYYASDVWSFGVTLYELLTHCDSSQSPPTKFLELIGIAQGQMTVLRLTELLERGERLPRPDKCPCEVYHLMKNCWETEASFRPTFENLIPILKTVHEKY
In short: as §3

T7 sequence (Q96SB4 whole entry): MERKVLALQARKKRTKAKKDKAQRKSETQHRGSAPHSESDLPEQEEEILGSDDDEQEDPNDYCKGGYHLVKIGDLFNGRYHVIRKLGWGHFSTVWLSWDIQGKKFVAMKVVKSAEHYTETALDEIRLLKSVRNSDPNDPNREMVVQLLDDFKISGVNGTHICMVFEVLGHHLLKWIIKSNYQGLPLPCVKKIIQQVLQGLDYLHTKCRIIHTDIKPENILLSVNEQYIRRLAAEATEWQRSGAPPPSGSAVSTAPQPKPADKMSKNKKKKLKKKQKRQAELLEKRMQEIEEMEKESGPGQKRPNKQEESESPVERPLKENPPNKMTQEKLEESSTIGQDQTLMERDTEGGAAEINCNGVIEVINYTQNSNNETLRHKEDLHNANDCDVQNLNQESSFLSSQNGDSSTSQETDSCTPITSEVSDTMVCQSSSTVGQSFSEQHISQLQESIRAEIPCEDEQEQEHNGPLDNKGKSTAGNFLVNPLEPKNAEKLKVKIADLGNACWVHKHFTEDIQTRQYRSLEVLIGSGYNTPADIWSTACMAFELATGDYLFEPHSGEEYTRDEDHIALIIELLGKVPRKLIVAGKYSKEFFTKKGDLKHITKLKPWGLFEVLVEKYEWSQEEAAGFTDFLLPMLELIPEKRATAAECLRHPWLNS
T6 sequence (Q9UM73 19-1620 L1196M): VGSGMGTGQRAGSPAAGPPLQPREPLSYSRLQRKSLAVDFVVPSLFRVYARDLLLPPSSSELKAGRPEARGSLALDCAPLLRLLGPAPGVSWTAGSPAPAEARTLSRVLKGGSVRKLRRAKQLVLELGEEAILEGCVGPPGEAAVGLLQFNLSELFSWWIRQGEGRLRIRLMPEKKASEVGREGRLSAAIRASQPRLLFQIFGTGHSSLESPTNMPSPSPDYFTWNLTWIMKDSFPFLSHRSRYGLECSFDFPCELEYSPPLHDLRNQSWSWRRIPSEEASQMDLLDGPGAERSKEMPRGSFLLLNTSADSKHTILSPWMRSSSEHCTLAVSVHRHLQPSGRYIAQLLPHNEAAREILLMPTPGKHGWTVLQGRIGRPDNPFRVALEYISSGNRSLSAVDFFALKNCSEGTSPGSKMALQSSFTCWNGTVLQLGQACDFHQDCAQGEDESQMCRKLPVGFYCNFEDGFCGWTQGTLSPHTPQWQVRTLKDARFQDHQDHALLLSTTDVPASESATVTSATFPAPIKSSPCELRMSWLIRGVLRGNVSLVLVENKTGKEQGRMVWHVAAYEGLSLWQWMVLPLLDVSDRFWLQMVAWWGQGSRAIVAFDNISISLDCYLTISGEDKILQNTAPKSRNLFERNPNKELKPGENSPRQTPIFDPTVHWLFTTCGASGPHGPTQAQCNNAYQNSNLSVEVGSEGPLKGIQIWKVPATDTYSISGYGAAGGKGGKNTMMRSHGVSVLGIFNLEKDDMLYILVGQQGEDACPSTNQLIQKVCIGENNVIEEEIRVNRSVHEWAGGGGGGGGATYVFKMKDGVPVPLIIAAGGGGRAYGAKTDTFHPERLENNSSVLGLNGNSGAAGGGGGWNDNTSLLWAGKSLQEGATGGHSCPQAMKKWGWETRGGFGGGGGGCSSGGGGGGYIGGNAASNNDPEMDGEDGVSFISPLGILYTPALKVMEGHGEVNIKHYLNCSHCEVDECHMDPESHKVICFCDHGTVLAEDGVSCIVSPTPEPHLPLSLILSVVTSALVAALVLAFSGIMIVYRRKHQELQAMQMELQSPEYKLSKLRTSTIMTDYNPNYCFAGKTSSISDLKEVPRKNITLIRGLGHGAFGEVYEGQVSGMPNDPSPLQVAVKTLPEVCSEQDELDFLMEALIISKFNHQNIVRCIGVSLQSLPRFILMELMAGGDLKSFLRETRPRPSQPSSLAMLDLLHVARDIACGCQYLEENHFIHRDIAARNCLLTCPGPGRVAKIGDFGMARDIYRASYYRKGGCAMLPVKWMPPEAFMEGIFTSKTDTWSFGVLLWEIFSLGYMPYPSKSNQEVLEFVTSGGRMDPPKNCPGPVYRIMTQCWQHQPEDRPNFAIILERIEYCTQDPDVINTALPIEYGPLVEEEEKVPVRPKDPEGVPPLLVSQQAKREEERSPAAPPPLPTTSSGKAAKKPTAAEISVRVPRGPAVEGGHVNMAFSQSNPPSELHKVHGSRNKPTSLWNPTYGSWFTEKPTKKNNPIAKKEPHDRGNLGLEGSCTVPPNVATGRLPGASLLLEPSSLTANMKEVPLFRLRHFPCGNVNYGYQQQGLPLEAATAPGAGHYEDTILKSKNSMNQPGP
Sequence of MAP4K4 (O95819 whole entry): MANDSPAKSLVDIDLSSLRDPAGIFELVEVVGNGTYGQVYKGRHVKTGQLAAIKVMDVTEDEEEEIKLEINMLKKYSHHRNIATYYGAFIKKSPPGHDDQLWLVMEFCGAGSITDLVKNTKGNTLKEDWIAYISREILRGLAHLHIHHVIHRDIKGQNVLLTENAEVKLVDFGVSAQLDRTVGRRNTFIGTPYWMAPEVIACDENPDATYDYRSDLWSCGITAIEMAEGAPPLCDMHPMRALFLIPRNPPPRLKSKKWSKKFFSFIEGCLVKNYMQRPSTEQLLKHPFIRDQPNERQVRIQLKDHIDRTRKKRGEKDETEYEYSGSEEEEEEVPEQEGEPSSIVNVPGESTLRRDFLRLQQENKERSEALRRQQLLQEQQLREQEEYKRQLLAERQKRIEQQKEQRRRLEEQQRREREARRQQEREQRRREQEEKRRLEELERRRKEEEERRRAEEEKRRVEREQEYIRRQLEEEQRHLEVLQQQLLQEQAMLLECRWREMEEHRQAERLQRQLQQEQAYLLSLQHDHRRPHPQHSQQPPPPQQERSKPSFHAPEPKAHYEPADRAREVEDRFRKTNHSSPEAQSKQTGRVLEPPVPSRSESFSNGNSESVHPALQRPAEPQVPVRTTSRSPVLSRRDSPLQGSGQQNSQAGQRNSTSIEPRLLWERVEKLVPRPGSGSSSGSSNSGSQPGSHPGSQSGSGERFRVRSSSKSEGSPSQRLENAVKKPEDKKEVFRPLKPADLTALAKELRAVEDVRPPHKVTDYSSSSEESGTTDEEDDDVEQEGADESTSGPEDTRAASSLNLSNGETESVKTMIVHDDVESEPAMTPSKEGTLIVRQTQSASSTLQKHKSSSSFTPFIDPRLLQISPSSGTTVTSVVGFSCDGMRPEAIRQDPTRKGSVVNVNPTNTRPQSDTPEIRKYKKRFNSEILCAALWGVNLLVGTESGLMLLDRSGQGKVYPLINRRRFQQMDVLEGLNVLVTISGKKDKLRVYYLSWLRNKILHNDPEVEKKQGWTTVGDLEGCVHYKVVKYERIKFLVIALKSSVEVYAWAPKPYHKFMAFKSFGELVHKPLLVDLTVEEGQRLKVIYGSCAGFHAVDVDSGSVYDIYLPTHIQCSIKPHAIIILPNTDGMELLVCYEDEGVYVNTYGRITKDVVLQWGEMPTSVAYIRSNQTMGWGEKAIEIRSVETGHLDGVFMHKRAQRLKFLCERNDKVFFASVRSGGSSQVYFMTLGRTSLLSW
T2 sequence (Q9UM73 19-1620 C1156Y): as the sequence (Q9UM73 19-1620 L1196M) above, with C1138Y, M1178L counted along it
T1 sequence (Q5S007 970-2527 limits assumed): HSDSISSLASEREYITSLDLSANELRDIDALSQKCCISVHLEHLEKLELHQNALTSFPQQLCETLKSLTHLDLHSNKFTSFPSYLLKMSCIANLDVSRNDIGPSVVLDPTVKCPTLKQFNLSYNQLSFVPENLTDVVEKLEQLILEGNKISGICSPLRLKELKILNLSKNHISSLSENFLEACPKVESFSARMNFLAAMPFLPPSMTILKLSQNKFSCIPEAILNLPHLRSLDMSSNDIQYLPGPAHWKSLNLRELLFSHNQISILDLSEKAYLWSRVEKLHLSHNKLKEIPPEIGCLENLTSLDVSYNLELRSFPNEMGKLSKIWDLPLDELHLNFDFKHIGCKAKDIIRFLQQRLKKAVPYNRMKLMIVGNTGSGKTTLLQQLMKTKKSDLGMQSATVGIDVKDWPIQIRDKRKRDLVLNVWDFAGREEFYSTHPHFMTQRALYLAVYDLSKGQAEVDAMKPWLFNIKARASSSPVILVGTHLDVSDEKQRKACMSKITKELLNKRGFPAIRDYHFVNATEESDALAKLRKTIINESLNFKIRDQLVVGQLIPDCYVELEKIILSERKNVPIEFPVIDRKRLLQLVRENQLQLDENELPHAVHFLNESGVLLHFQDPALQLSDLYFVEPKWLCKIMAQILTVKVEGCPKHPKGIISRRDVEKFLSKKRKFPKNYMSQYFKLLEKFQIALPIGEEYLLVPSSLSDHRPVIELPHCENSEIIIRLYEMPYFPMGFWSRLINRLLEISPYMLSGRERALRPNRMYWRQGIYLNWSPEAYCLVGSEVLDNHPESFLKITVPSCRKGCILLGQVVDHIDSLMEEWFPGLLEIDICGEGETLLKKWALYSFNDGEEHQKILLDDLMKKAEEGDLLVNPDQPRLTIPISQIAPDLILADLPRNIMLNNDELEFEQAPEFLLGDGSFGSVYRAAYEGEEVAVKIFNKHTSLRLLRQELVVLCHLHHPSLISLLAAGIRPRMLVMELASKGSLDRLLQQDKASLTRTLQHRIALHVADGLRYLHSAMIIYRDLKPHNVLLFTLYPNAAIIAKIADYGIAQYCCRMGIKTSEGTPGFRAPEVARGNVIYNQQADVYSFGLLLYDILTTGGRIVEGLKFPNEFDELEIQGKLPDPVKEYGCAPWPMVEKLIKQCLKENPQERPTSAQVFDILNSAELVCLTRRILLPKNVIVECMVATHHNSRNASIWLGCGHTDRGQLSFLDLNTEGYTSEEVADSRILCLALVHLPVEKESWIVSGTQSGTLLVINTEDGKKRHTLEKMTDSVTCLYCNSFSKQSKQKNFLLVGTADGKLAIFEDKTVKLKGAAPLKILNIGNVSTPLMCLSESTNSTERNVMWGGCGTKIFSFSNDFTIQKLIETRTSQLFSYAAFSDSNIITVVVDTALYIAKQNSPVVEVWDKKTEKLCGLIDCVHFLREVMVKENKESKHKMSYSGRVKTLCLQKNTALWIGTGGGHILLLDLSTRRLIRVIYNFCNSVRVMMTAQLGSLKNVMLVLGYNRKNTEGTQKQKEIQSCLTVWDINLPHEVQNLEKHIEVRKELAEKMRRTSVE
Sequence of LRRK2(G2019S) (Q5S007 970-2527 G2019S limits assumed): as the sequence (Q5S007 970-2527 limits assumed) above, with G1050S counted along it

Structure (SMILES)	IC50 (LRRK2 WT enzyme) [nM]	IC50 (LRRK2(G2019S)) [nM]	remaining binding at 1 µM (ALK(C1156Y)) [%]	remaining binding at 1 µM (STK39) [%]	remaining binding at 1 µM (TSSK1B) [%]	remaining binding at 1 µM (CDKL2) [%]	remaining binding at 1 µM (MAP4K4) [%]	remaining binding at 1 µM (ALK(L1196M)) [%]	remaining binding at 1 µM (SRPK1) [%]	remaining binding at 1 µM (WNK2) [%]	remaining binding at 1 µM [1] [%]
CNc1c(-c2cnn([C@H]3CCN(C(C)=O)C[C@@H]3F)c2)cnc2[nH]cc(Cl)c12 [Compound 77, 1-((3S,4S)-4-(4-(3-chloro-4-(methylamino)-1H-pyrrolo[2,3-b]pyridin-5-yl)-1H-pyrazol-1-yl)-3-fluoropiperidin-1-yl)ethan-1-one]	10 to 100	10 to 100	47	16	99	95	58	91	10	92	15
CNc1c(-c2ccc(C(=O)N3CCC(N4CCOCC4)CC3)cc2)cnc2[nH]cc(Cl)c12 [Compound 96, (4-(3-chloro-4-(methylamino)-1H-pyrrolo[2,3-b]pyridin-5-yl)phenyl)(4-morpholinopiperidin-1-yl)methanone]	10 to 100	< 10	37	9.7	100	97	19	51	17	100	29
O=C(c1ccc(-c2cnc3[nH]cc(Cl)c3c2NC2CCCC2)cc1)N1CCC(N2CCOCC2)CC1 [Compound 101, (4-(3-chloro-4-(cyclopentylamino)-1H-pyrrolo[2,3-b]pyridin-5-yl)phenyl)(4-morpholinopiperidin-1-yl)methanone]	–	–	66	80	41	100	78	94	27	100	100
